Tests used:
[1] = tested on: LTB4 biosynthesis in human whole blood; experiment: Inhibition of calcium ionophore-induced LTB4 biosynthesis in human whole blood; format: cell-based; settings: for IC50: A23187 50 μM, 15 min preincubation, read-out: Inhibition of Leukotriene Biosynthesis IC50
Description: Inhibition of leukotriene biosynthesis was evaluated in an assay, involving calcium ionophore-induced LTB4 biosynthesis expressed by human whole blood. Heparinized (20 U/mL) human blood (0.3 mL) was preincubated with test compound or vehicle for 15 min. at 37° C. Eicosanoid biosynthesis was initiated by adding calcium ionophore (A23187) in DMSO to a final concentration of 50 μM and terminated after 30 min. by rapid cooling of the blood in an ice bath and centrifuging at 3° C. for 10 min at 2500×g. The plasma was mixed with 4 volumes of methanol and allowed to stand for at least 30 min. at 3° C. prior to centrifuging at 1800×g for 10 min. The level of LTB4 in aliquots of the methanol-plasma extract was analyzed by radio-immunoassay or enyme-immunoassay techniques.

leukotriene biosynthesis = experiment: Inhibition of leukotriene biosynthesis in vivo after oral administration, rat peritoneal anaphylaxis model; settings: 200 μmol/kg oral (gavage), 1 h before antigen challenge; for inhibition in vivo at 200 µmol/kg: read-out: % Inhibition of Leukotrienes at 200 μmol/kg oral dose
Description: Inhibition of the biosynthesis of leukotrienes in vivo after oral administration of representative test compounds of this invention was determined using a rat peritoneal anaphylaxis model in a similar manner as that described by Young and coworkers (Young, P. R.; Dyer, R. D.; Carter, G. W. Fed. Proc., Fed. Am. Soc. Exp. Biol. 1985, 44, 1185). In this model rats were injected intraperitoneally (ip) with rabbit antibody to bovine serum albumin (BSA) and three hours later injected ip with BSA to induce an antgen-antibody response. Rats were sacrificed 15 minutes after this challenge and the peritoneal fluids were collected and analyzed for leukotriene levels. Test compounds were administered by gavage one hour prior to the antigen challenge. Percent inhibition values were determined by comparing the treatment group to the mean of the control group. The results of this assay, for representative compounds of the present invention, at an oral dose level of […] are presented in Table 2, and at an oral dose of […] in Table 3.

5-lipoxygenase = target: T1, 5-lipoxygenase (Rattus norvegicus, UniProt P12527); experiment: In vitro inhibition of 5-lipoxygenase (20,000×g supernatant from homogenized RBL-1 cells, radiolabeled arachidonic acid); format: biochemical; settings: 20,000×g supernatant of RBL-1 cells; triplicate; read-out: IC50 (in vitro inhibitory potency against 5-lipoxygenase)
T1 construct: 20,000×g supernatant from 1.5 million homogenized RBL-1 cells; endogenous in cells; host or cells: RBL-1 cells (20,000×g supernatant of homogenate)
T1 sequence (P12527 1-673): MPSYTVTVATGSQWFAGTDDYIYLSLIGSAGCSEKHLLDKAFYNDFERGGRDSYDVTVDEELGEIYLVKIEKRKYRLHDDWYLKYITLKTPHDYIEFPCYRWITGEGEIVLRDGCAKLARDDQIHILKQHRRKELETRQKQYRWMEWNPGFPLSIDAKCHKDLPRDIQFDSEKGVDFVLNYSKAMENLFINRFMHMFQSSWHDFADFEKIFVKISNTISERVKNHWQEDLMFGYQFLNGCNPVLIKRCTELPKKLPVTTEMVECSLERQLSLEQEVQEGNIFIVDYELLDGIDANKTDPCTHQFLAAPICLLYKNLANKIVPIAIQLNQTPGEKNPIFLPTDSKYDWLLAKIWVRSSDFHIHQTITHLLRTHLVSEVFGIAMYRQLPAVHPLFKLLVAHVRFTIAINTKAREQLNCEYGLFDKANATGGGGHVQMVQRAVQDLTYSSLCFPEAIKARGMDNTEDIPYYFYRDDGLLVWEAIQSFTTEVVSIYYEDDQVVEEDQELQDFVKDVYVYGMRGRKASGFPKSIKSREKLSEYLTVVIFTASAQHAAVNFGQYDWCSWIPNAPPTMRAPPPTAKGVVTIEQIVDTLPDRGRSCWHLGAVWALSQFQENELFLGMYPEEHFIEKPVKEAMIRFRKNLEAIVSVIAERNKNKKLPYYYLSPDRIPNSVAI
Description: Assays to determine 5-lipoxygenase inhibitory activity were performed in […] incubations containing the 20,000×g supernatant from 1.5 million homogenized RBL-1 cells and various concentrations of the test compound. Reactions were initiated by addition of radiolabeled arachidonic acid and terminated by acidification and ether extraction. Reaction products were separated from nonconverted substrate by thin layer chromatography and measured by liquid scintillation spectroscopy. All incubations were performed in triplicate. Inhibition of 5-lipoxygenase activity was calculated as the ratio of the amount of product formed in the presence and absence of inhibitor. IC50 values (concentration of compound producing 50% enzyme inhibition) were calculated by linear regression analysis of percentage inhibition versus log inhibitor concentration plots. (Dyer, R .D.; Haviv, F.; Hanel, A. M.; Bornemier, D. A.; Carter, G. W. Fed. Proc., Fed. Am. Soc. Exp. Biol. 1984, 43, 1462A).

Structure (SMILES)	IC50 [1] [nM]	IC50 (5-lipoxygenase) [nM]	also measured
CNC(=O)N(O)C(C)[C@@H]1C[C@H]1c1ccc(C)s1 (stereo partly drawn) [Example 181, N-(1-trans-(2-(5-methyl-2-thienyl)cyclopropyl)ethyl)-N-hydroxy-N'-methylure]	600		
CC([C@@H]1C[C@H]1c1cccc(Oc2ccccn2)c1)N(O)C(N)=O (single isomer, unassigned) [Example 172a, N-(1-trans-(2-(3-(2-pyridyloxy)phenyl)cyclopropyl)ethyl)-N-hydroxyurea]	960		
CNC(=O)N(O)C[C@@H]1C[C@H]1c1cccc(Oc2ccc(F)cc2)c1 (relative stereo) [Example 177, N-(1-trans-(2-(3-(4-fluorophenoxy)phenyl)cyclopropyl)methyl)-N-hydroxy-N'-methylurea]			inhibition at 0.2 µM ([1]; 0.2 μM, read-out: Inhibition of Leukotriene Biosynthesis (% at 0.2 μM)): 69%
CNC(=O)N(O)C[C@@H]1C[C@H]1c1cccc(Oc2cccc(C)c2)c1 (relative stereo) [Example 173, N-(1-trans-(2-(3-(3-methylphenoxy)phenyl)cyclopropyl)methyl)-N-hydroxy-N-methylurea]	230		
CNC(=O)N(O)C[C@@H]1C[C@H]1c1cccc(Oc2ccccn2)c1 (relative stereo) [Example 171, N-(1-trans-(2-(3-(2-pyridyloxy)phenyl)cyclopropyl)methyl)-N-hydroxy-N'-methylurea]			inhibition at 0.39 µM ([1]; 0.39 μM, read-out: Inhibition of Leukotriene Biosynthesis (% at 0.39 μM)): 40%
CCOc1ccc(Oc2cccc([C@@H]3C[C@H]3CN(O)C(=O)NC3CC3)c2)cc1 (relative stereo) [Example 165]	740		
Cc1ccc([C@@H]2C[C@H]2C(C)N(O)C(N)=O)o1 (relative stereo) [Example 26, N-(1-trans-((5-methylfuran-2-yl)cyclopropyl)ethyl)-N-hydroxyurea]		1100	% Inhibition of Leukotrienes at 200 μmol/kg oral dose (leukotriene biosynthesis): 92%
NC(=O)N(O)C[C@H]1C[C@H]1c1ccccc1 (relative stereo) [Example 16, N-(1-cis-(2-phenylcyclopropyl)methyl)-N-hydroxyurea]		2800	inhibition in vivo at 200 µmol/kg (leukotriene biosynthesis): 61%
Cc1cccc(Oc2cccc([C@@H]3C[C@H]3CN(O)C(N)=O)c2)n1 (relative stereo) [Example 163, N-(1-trans-(2-(3-(6-methyl-2-pyridyloxy)phenyl)cyclopropyl)methyl)-N-hydroxyurea]	250		
COc1ccc([C@@H]2C[C@H]2C(C)N(O)C(C)=O)cc1 (stereo partly drawn) [Example 29, N-(1-trans-(2-(4-methoxyphenyl)cyclopropyl)ethyl)-N-hydroxyacetamide]		900	inhibition in vivo at 200 µmol/kg (leukotriene biosynthesis): 96%
NC(=O)N(O)CC[C@@H]1C[C@H]1c1ccccc1 (relative stereo) [Example 34, N-(2-trans-(2-phenylcyclopropyl)ethyl)-N-hydroxyurea]		300	inhibition in vivo at 200 µmol/kg (leukotriene biosynthesis): 100%
NC(=O)N(O)C[C@@H]1C[C@H]1c1ccccc1Oc1ccccc1 (relative stereo) [Example 40, N-(1-trans-(2-(2-phenoxyphenyl)cyclopropyl)methyl)-N-hydroxyurea]		200	inhibition in vivo at 200 µmol/kg (leukotriene biosynthesis): 97%
CCc1ccc(Oc2cccc([C@@H]3C[C@H]3CN(O)C(=O)NC)c2)cc1 (relative stereo) [Example 175, N-(1-trans-(2-(3-(4-ethylphenoxy)phenyl)cyclopropyl)methyl)-N-hydroxy-N'-methyl-hydroxyurea]	200		
NC(=O)N(O)C[C@@H]1C[C@H]1c1cccc(Oc2ccc(OCCO)cc2)c1 (relative stereo) [Example 161, N-(1-trans-(2-(3-(4-(2-hydroxyethoxy)phenoxy)phenyl)cyclopropyl)methyl)-N-hydroxyurea]	170		
CNC(=O)N(O)C(C)[C@@H]1C[C@H]1c1cccc(Oc2ccccc2)c1 (stereo partly drawn) [Example 17, N-(1-trans-(2-(3-phenoxyphenyl)cyclopropyl)ethyl)-N-hydroxy-N'-methylurea]		70	inhibition in vivo at 200 µmol/kg (leukotriene biosynthesis): 81%
CNC(=O)N(O)C[C@@H]1C[C@H]1c1cccc(Oc2ccccc2)c1 (relative stereo) [Example 11, N-(1-trans-(2-(3-phenoxyphenyl)cyclopropyl)methyl)-N-hydroxy-N'-methylurea]		100	inhibition in vivo at 200 µmol/kg (leukotriene biosynthesis): 65%
NC(=O)N(O)C[C@@H]1C[C@H]1c1cccc(Oc2ccccc2)c1 (relative stereo) [Example 10, N-(1-trans-(2-(3-phenoxyphenyl)cyclopropyl)methyl)-N-hydroxyurea]		100	inhibition in vivo at 200 µmol/kg (leukotriene biosynthesis): 97%
CC(Oc1ccc([C@@H]2C[C@H]2CN(O)C(N)=O)cc1)c1ccccc1 (stereo partly drawn) [Example 23, N-(1-trans-(2-(4-(1-phenylethoxy)phenyl)cyclopropyl)methyl)-N-hydroxyurea]		100	inhibition in vivo at 200 µmol/kg (leukotriene biosynthesis): 93%

Second part, led by results:

IC50 [1] [nM]	IC50 (5-lipoxygenase) [nM]	Structure (SMILES)	also measured
1600		CC([C@@H]1C[C@H]1c1cccs1)N(O)C(N)=O (stereo partly drawn) [Example 197, N-(1-trans-(2-(2-thienyl)cyclopropyl)ethyl)-N-hydroxyurea]	
200		CC(=O)N(O)C[C@@H]1C[C@H]1c1cccs1 (relative stereo) [Example 190, N-(1-trans-(2-(2-thienyl)cyclopropyl)methyl)-N-hydroxyacetamide]	
240		CNC(=O)N(O)C[C@@H]1C[C@H]1c1ccoc1 (relative stereo) [Example 185, N-(1-trans-(2-(3-furanyl)cyclopropyl)methyl)-N-hydroxy-N'-methylurea]	
210		CNC(=O)N(O)C[C@@H]1C[C@H]1c1ccsc1 (relative stereo) [Example 187, N-(1-trans-(2-(3-thienyl)cyclopropyl)methyl)-N-hydroxy-N'-methylurea]	
60		NC(=O)N(O)C[C@@H]1C[C@H]1c1cnc(Oc2ccc(Cl)cc2)s1 (relative stereo) [Example 199, N-(1-trans-(2-(2-(4-chlorophenoxy)-5-thiazolyl)cyclopropyl)methyl)-N-hydroxyurea]	
850		CNC(=O)N(O)C(C)[C@@H]1C[C@H]1c1ccc(C)o1 (stereo partly drawn) [Example 184, N-(1-trans-(2-(5-methyl-2-furanyl)cyclopropyl)ethyl)-N-hydroxy-N'-methylurea]	
690		Cc1ccc([C@@H]2C[C@H]2C(C)N(O)C(N)=O)s1 (stereo partly shown) [Example 182]	
190		CC(=O)N(O)C[C@@H]1C[C@H]1c1ccco1 (relative stereo) [Example 195, N-(1-trans-(2-(2-furanyl)cyclopropyl)methyl)-N-hydroxyacetamide]	
470		CNC(=O)N(O)C(C)[C@@H]1C[C@H]1c1ccsc1 (stereo partly drawn) [Example 186, N-(1-trans-(2-(3-thienyl)cyclopropyl)ethyl)-N-hydroxy-N'-methylurea]	
620		CNC(=O)N(O)C(C)[C@@H]1C[C@H]1c1ccco1 (stereo partly drawn) [Example 183, N-(1-trans-(2-(2-furanyl)cyclopropyl)ethyl)-N-hydroxy-N'-methylurea]	

From US5120752A, “Cyclopropyl derivative lipoxygenase inhibitors” (Abbott Laboratories, priority 1990, dated 1992)
